Assay results: patent US20060205716A1, “Microbicidal agents” (priority 2003, published 2006)

Tests used:
[1] = test system: bacteria (Pseudomonas aeruginosa, P. fluorescens, P. oleovorans, P. rubescens, P. stutzeri, Alcaligenes faecalis, Citrobacter freundii, Corynebacterium sp); assay: Preservation of a cooling lubricant emulsion, repeated weekly contamination: bacteria; conditions: limit <10^6 CFU/g, maximum test duration 10 weeks
Description: (§1) What was examined was the preserving action of CMC/MIT mixtures according to the invention in a cooling lubricant emulsion (5% mineral oil/emulsifier concentrate/95% water). To this end, biocide-free and perserved samples of a cooling lubricant emulsion were repeatedly, at weekly intervals, exposed to microbiological stress using the following microorganisms:
Bacteria: • Pseudomonas aeruginosa • Pseudomonas fluorescens • Pseudomonas oleovorans • Pseudomonas rubescens • Pseudomonas stutzeri • Alcaligenes faecalis • Citrobacter freundii • Corynebacterium sp
(§2) In each case, the bacteria were added separately from the yeasts/moulds.
The maximum duration of the test was 10 weeks (=10 contaminations), if the following limits were not exceeded during the weekly determination of the number of germs: […]

[2] = test system: yeasts (Rhodotorula rubra); assay: Preservation of a cooling lubricant emulsion, repeated weekly contamination: yeasts; conditions: limit <10^3-4 CFU/g, maximum test duration 10 weeks
Description: as §1
Yeasts: • Rhodotorula rubra
as §2
(§3) The maximum duration of the test was 10 weeks (=10 contaminations), if the following limits were not exceeded during the weekly determination of the number of germs:
(§4) yeasts/moulds<10^3-4 CFU/g.

[3] = test system: moulds (Acremonium strictum, Fusarium solani, Geotrichum candidum); assay: Preservation of a cooling lubricant emulsion, repeated weekly contamination: moulds; conditions: limit <10^3-4 CFU/g, maximum test duration 10 weeks
Description: as §1
Moulds: • Acremonium strictum • Fusarium solani • Geotrichum candidum
as §2, §3, §4

Pseudomonas fluorescens = assay: Minimum inhibitory concentration / synergism test with test germ Pseudomonas fluorescens; type: cell-based; conditions: pure active compound applied on its own
Description: The observed synergism of the mixtures according to the invention can be determined by the following mathematical approach (cf. F. C. Kull, P. C. Elisman, H. D. Sylwestrowicz and P. K. Mayer, Appl. Microbiol. 9, 538 (1961): [formula] where • Qa=the amount of component A in the active compound mixture required to achieve the desired effect, i.e. no microbial growth, • QA=the amount of component A which, applied on its own, suppresses the growth of the microorganisms, • Qb=the amount of component B in the active compound mixture which suppresses the growth of the microorganisms, and • […]=the amount of component B which, applied on its own, suppresses the growth of the microorganisms.
A synergistic index of SI<1, in accordance with the above formula, indicates a synergistic effect for the active compound mixture.
The minimum inhibitory concentration of the active compound combinations listed in Table 1 were examined using the test germ Pseudomonas fluorescens

[4] = 0.15% CMC based on cooling lubricant emulsion
[5] = 0.01% MIT based on cooling lubricant emulsion

SMILES: Cc1cc(O)ccc1Cl [CMC, p-chloro-m-cresol]
- number of weeks without colonization: bacteria [1, 4]: 3 weeks
- number of weeks without colonization: yeasts [2, 4]: 10 weeks
- number of weeks without colonization: moulds [3, 4]: 10 weeks
- Amount of pure active compounds required to suppress growth (QA, QB) (Pseudomonas fluorescens): 150 (QA) ppm

SMILES: Cn1sccc1=O [MIT, 2-methyl-2H-isothiazol-3-one]
- number of weeks without colonization: bacteria [1, 5]: 8 weeks
- number of weeks without colonization: yeasts [2, 5]: 8 weeks
- number of weeks without colonization: moulds [3, 5]: 5 weeks
- Amount of pure active compounds required to suppress growth (QA, QB) (Pseudomonas fluorescens): 5 (QB) ppm
